Laboratory results reported in patent US6602664B2 (priority 1998, dated 2003).
“And” between values parts separate entries of the source, which are not always exact repeats. Equal values may be shown once. Read-outs that look alike come from different tables or passages of the source.

How the values were obtained:
[1] = tested on: drug-resistant HIV-1 in MT-4; assay: microbe, parasite or virus in culture; format: cell-based
[2] = tested on: drug-resistant HIV-1 in MT-2; assay: microbe, parasite or virus in culture; format: cell-based; conditions: MT-2
[3] = tested on: drug-resistant HIV-1 in HeLa HT4-6C; assay: microbe, parasite or virus in culture; format: cell-based; conditions: Human immunodeficiency virus 1, HeLa
[4] = tested on: recombinant HIV-1 virus isolates; format: cell-based
From the text: The aim of the study was to determine the potency of the inhibitory effect of a new generation of NRTIs on Multi Drug Resistant isolates and to compare it with their effect on wild-type HIV-1 isolates. All recombinant viruses were taken from the VIRCO repository of phenotypically and genotypically characterized virus isolates. Hirsch et al. Antiretroviral Drug Resistance Testing in Adults with HIV Infection. JAMA; 1998: 79(24) 1984-1991. See also Pauwels et al. Comprehensive HIV drug Resistance monitoring using rapid, high-throughput phenotypic and genotypic assays with correlative data analysis. Antiviral Therapy, 1998: 3: 35 Abstract 51.
Phenotypic drug susceptibility determination of recombinant virus isolates is described in Hertogs et al. A Rapid Method for Simultaneous Detection of Phentypic Resistance to Inhibitors of Protease and Reverse Transcriptase in Recombinant HIV-1 Isolates from Patients Treated with Antiretroviral Drugs. Antimicrob. Agents Chemother. 1998; 42(2): 269-276. The basic principle of the Antivirogram® technology is the construction of chimeric HIV-1 strains composed of the protease (PR) and reverse transcriptase (RT) gene sequences which are isolated and amplified from patient viral RNA. Amplicons are subsequently transfected into CD4+T cells together with a standard laboratory isogenic (HXB2) HIV-1 DNA construct from which the PR/RT gene sequences were deleted. After homologous recombination, new viruses whose diversity reflects the original population amplified from the plasma are produced at high level from these cells.
The virus infectivity (CCID50) is determined by an end-point dilution method. The titer is calculated from the degree of infection, measured by the intensity of reporter-gene signal as generated by serial dilutions of the virus shock. The chimeric (clinical isolates and wild-type reference) viruses are then analyzed for their phenotypic sensitivity (i.e. susceptibility) to the different PR and RT-inhibitors in an automated reporter gene-based assay using serial dilutions of the compound. The standardisation of the Antivirogram®n assay allows for simultaneous testing of all clinically approved drugs in one 384-well microtiter plate. The experimental drugs are included in separate plates. Each plate contains multiple replicates of mock-infected wells, virus-infection control wells and blank (medium-only) well. All plates are tested in duplicate. 50% Inhibitory concentrations are calculated based on reporter signals obtained through optical reading of 384-well plates containing serial dilutions of compounds, a normalised quantity of virus and by taking into account all relevant control wells. Approval (or not) is done according to critical ranges and settings as described in the corresponding VIRCO Standard Operating Procedure.
A more detailed description of the protocol is as follows. Samples were stored frozen. […] To confirm the genotypic pattern, genotyping (ABI-sequencing) was performed after recombination and culture of the laboratory strains by analysis of cell viability, calculation of results (dose-response curves, IC50 values), and reporting of data.

HIV = conditions: U.S. Pat. No. 4,916,122; cited from earlier work
[5] = tested on: HIV-1 replication in human PBM cells; assay: microbe, parasite or virus in culture; format: cell-based
Description: Cells and viruses. […] Antimicrobial Agents Chemother 1992;36(11): 2423-2431.
Cell pellets were washed, centrifuged, lysed and the proviral DNA extracted as previously described. Cytotoxicity of the compounds was determined using the Promega Cell Titer 96 dye uptake assay (Madison, Wis.) in 1-2 day PHA-stimulated PBM cells after 5 days in culture. The median effective concentration (EC50) and inhibitory concentration (IC50) were derived from the computer-generated median effect plot of the dose-effect data, as described previously.

[6] = tested on: drug-resistant HIV-1 in PBMC; assay: microbe, parasite or virus in culture; format: cell-based; conditions: for EC50: Human immunodeficiency virus 1, PBMC, PBMC
[7] = clinical isolate (pre) prior to long-term ZDV monotherapy, row HIV-1 (A012D), read-out: Untreated EC50
[8] = clinical isolate HIV-1 (A012D:M41L?/D67N/K70R/T215F/K219Q), read-out: Selected Varient EC50
[9] = Human immunodeficiency virus 1, PBMC, 144 h

Q: With `[N-]=[N+]=N[C@H]1C[C@H](n2ccc(=O)[nH]c2=O)O[C@@H]1CO` [CS-87, 3′-Azido-2′,3′-dideoxyuridine] as the compound, how does the EC50 ([1]; Human immunodeficiency virus 1, MT4, clinical isolate (pre) prior to long-term ZDV monotherapy, row HIV-1 (A-161), read-out: Untreated EC50) read?
A: Its EC50 is 600 nM.

Q: And the EC50 ([1]; Human immunodeficiency virus 1, MT4, clinical isolate (pre) prior to long-term ZDV monotherapy, row HIV-1 (C-246), read-out: Untreated EC50)?
A: Its EC50 is 600 nM.

Q: And the EC50 ([1]; Human immunodeficiency virus 1, MT4, clinical isolate (pre) prior to long-term ZDV monotherapy, row HIV-1 (G-68), read-out: Untreated EC50)?
A: Its EC50 is 600 nM.

Q: And the EC50 ([1]; Human immunodeficiency virus 1, MT4, clinical isolate (pre) prior to long-term ZDV monotherapy, row HIV-1 (R-102), read-out: Untreated EC50)?
A: Its EC50 is 600 nM.

Q: And the EC50 ([1]; Human immunodeficiency virus 1, MT4, clinical isolate (pre) prior to long-term ZDV monotherapy, row HIV-1 (X-78), read-out: Untreated EC50)?
A: The EC50 was 600 nM.

Q: What about the EC50 ([1]; Human immunodeficiency virus 1, MT4, clinical isolate HIV-1 (A-161), long-term ZDV monotherapy, read-out: Selected Varient EC50) of the same compound?
A: Its EC50 is 8600 nM.

Q: What about the EC50 ([1]; Human immunodeficiency virus 1, MT4, clinical isolate HIV-1 (C-246), long-term ZDV monotherapy, read-out: Selected Varient EC50) of the same compound?
A: Its EC50 is 10300 nM.

Q: And the EC50 ([1]; Human immunodeficiency virus 1, MT4, clinical isolate HIV-1 (G-68), long-term ZDV monotherapy, read-out: Selected Varient EC50)?
A: The EC50 was 500 nM.

Q: What about the EC50 ([1]; Human immunodeficiency virus 1, MT4, clinical isolate HIV-1 (R-102), long-term ZDV monotherapy, read-out: Selected Varient EC50) of the same compound?
A: The EC50 was 300 nM.

Q: And the EC50 ([1]; Human immunodeficiency virus 1, MT4, clinical isolate HIV-1 (X-78), long-term ZDV monotherapy, read-out: Selected Varient EC50)?
A: Its EC50 is 500 nM.

Q: What about the EC50 ([2]; Human immunodeficiency virus 1, MT2, molecular clone HIV-1 (D67N/K70R/M184V/T215Y/K219Q), read-out: Selected Varient EC50) of the same compound?
A: The EC50 was 53.4 µM.

Q: What about the EC50 ([2]; Human immunodeficiency virus 1, MT2, molecular clone HIV-1 (D67N/K70R/T215Y/K219Q), read-out: Selected Varient EC50) of the same compound?
A: The EC50 was over 90 µM.

Q: And the EC50 ([2]; Human immunodeficiency virus 1, MT2, molecular clone HIV-1 (M41L/D67N/M184V/H208Y/L210W/R211K/L214F/T215Y), read-out: Selected Varient EC50)?
A: Its EC50 is 50.2 µM.

Q: And the EC50 ([2]; Human immunodeficiency virus 1, MT2, molecular clone HlV-1 (M184V), read-out: Selected Varient EC50)?
A: Its EC50 is 16.8 µM.

Q: What about the EC50 ([2]; Human immunodeficiency virus 1, MT2, parent strain HIV-1 (xxLAI), row HIV-1 (D67N/K70R/M184V/T215Y/K219Q), read-out: Untreated EC50) of the same compound?
A: Its EC50 is 20 µM.

Q: And the EC50 ([2]; Human immunodeficiency virus 1, MT2, parent strain HIV-1 (xxLAI), row HIV-1 (D67N/K70R/T215Y/K219Q), read-out: Untreated EC50)?
A: Its EC50 is 20 µM.

Q: What about the EC50 ([2]; Human immunodeficiency virus 1, MT2, parent strain HIV-1 (xxLAI), row HIV-1 (M41L/D67N/M184V/H208Y/L210W/R211K/L214F/T215Y), read-out: Untreated EC50) of the same compound?
A: The EC50 was 20 µM.

Q: What about the EC50 ([2]; Human immunodeficiency virus 1, MT2, parent strain HIV-1 (xxLAI), row HlV-1 (M184V), read-out: Untreated EC50) of the same compound?
A: Its EC50 is 20 µM.

Q: And the EC50 [3, 7]?
A: Its EC50 is 0.4 µM.

Q: What about the EC50 ([3]; clinical isolate (pre) prior to long-term ZDV monotherapy, row HIV-1 (A018C), read-out: Untreated EC50) of the same compound?
A: Its EC50 is 1 µM.

Q: And the EC50 ([3]; clinical isolate (pre) prior to long-term ZDV monotherapy, row HIV-1 (A036DD), read-out: Untreated EC50)?
A: The EC50 was 0.6 µM.

Q: What about the EC50 ([3]; clinical isolate (pre) prior to long-term ZDV monotherapy, row HIV-1 (P022C), read-out: Untreated EC50) of the same compound?
A: The EC50 was 0.4 µM.

Q: And the EC50 ([3]; clinical isolate (pre) prior to long-term ZDV monotherapy, row HIV-1 (P026B), read-out: Untreated EC50)?
A: The EC50 was 0.4 µM.

Q: And the EC50 [3, 8]?
A: Its EC50 is 89 µM.

Q: What about the EC50 ([3]; clinical isolate HIV-1 (A018C:D67N/K70R/T215Y/K219Q), read-out: Selected Varient EC50) of the same compound?
A: The EC50 was 50 µM.

Q: And the EC50 ([3]; clinical isolate HIV-1 (A036DD:M41L/D67N/K70R/T215Y), read-out: Selected Varient EC50)?
A: Its EC50 is 56 µM.

Q: What about the EC50 ([3]; clinical isolate HIV-1 (P022C:M41L?/D67N/K70R/T215F/K219Q), read-out: Selected Varient EC50) of the same compound?
A: The EC50 was 40 µM.

Q: And the EC50 ([3]; clinical isolate HIV-1 (P026B:M41L?/D67N/K70R/T215Y), read-out: Selected Varient EC50)?
A: The EC50 was 100 µM.

Q: And the “activity against multiple-drug resistant forms of HIV” value [4]?
A: The value was “active”.

Q: And the “susceptibility of multiple dideoxynucleoside resistant viruses” value [4]?
A: Its value is “resistant”.

Q: And the anti-HIV activity (HIV)?
A: Its anti-HIV activity is “significant anti-HIV activity”.

Q: What about the “m ± SE (slope of median effect plot)” value [5] of the same compound?
A: Its value is 1.62 ± 0.13 and 1.50 ± 0.33 and 1.01 ± 0.01.

Q: And the inhibition at 10 µM [5, 9]?
A: The inhibition at 10 µM was 34.5%.

Q: What about the inhibition at 100 µM [5, 9] of the same compound?
A: The inhibition at 100 µM was 32%.

Q: What about the inhibition at 1000 µM [5, 9] of the same compound?
A: Its inhibition at 1000 µM is 87.3%.

Q: What about the “fold change in EC50” value [6] of the same compound?
A: The value was under 3 fold.

Q: What about the EC50 [6, 7] of the same compound?
A: Its EC50 is 400 nM.

Q: What about the EC50 [6, 8] of the same compound?
A: Its EC50 is 16500 nM.

Q: What about the EC50 ([6]; molecular clone 1 (T215Y/M41L), read-out: Selected Varient EC50) of the same compound?
A: The EC50 was 2100 nM.

Q: What about the EC50 ([6]; molecular clone (M184V/T215Y), read-out: Selected Varient EC50) of the same compound?
A: Its EC50 is 1100 nM.

Q: What about the EC50 ([6]; molecular clone HIV-1 (D67N/K70R/T215Y/K219Q), read-out: Selected Varient EC50) of the same compound?
A: The EC50 was 300 nM.

Q: What about the EC50 ([6]; molecular clone HIV-1 (K65R), read-out: Selected Varient EC50) of the same compound?
A: Its EC50 is 1100 nM.

Q: What about the EC50 ([6]; molecular clone HIV-1 (L74V), read-out: Selected Varient EC50) of the same compound?
A: Its EC50 is 600 nM.

Q: And the EC50 ([6]; molecular clone HIV-1 (M184V), read-out: Selected Varient EC50)?
A: The EC50 was 600 nM.

Q: And the EC50 ([6]; molecular clone HIV-1 (T215Y), read-out: Selected Varient EC50)?
A: The EC50 was 300 nM.

Q: And the EC50 ([6]; parent strain HIV-1 (xxLAI), row 1 (T215Y/M41L), read-out: Untreated EC50)?
A: Its EC50 is 1100 nM.

Q: What about the EC50 ([6]; parent strain HIV-1 (xxLAI), row (M184V/T215Y), read-out: Untreated EC50) of the same compound?
A: Its EC50 is 1100 nM.

Q: What about the EC50 ([6]; parent strain HIV-1 (xxLAI), row HIV-1 (D67N/K70R/T215Y/K219Q), read-out: Untreated EC50) of the same compound?
A: Its EC50 is 1100 nM.

Q: And the EC50 ([6]; parent strain HIV-1 (xxLAI), row HIV-1 (K65R), read-out: Untreated EC50)?
A: Its EC50 is 1100 nM.

Q: What about the EC50 ([6]; parent strain HIV-1 (xxLAI), row HIV-1 (L74V), read-out: Untreated EC50) of the same compound?
A: Its EC50 is 1100 nM.

Q: What about the EC50 ([6]; parent strain HIV-1 (xxLAI), row HIV-1 (M184V), read-out: Untreated EC50) of the same compound?
A: Its EC50 is 1100 nM.

Q: What about the EC50 ([6]; parent strain HIV-1 (xxLAI), row HIV-1 (T215Y), read-out: Untreated EC50) of the same compound?
A: Its EC50 is 1100 nM.
